Article PMC9238271, “The quorum sensing peptide EntF* promotes colorectal cancer metastasis in mice: a new factor in the host-microbiome interaction” (BMC Biology, 2022)
Where “and” joins values, the source holds several entries; their conditions need not be identical. Equal values may be shown once.

Assays:
[1] = Formation of EntF* from EntF in HBSS (buffer); assay type: in vitro ADME; settings: for Formation rate, HBSS: EntF in HBSS; for EntF* Conc formed from EntF / EntF* without metabolisation, Conc / EntF*/EntF: single run
Caco-2 monolayer = Caco-2 monolayer permeability assay; assay type: in vitro ADME; settings: for Kapp / Cumulative conc / Cumulative amount / Mean cumulative amount / Mean cumulative concentration / % Dose applied / Conc in receiver compartment: Caco-2 Transwell A -> B; for Kapp / Cumulative conc / Cumulative amount / Mean cumulative amount / Mean cumulative concentration: 1 µM EntF* apical; for Kapp / Conc in receiver compartment: LC1-MS1; for Cumulative conc / Cumulative amount / % Dose applied / Conc in receiver compartment: individual replicates A -> B (1)-(6); for Mean cumulative amount / Mean cumulative concentration: mean of n = 6; for % Dose applied: amount applied 0.4 nmol; for Conc in receiver compartment: dose solution 1 µM EntF* (0.4 nmol applied), cell vol 1.200 ml
Protocol: To avoid the absorption of EntF* onto plasticware and glassware, all tubes and containers were coated with a BSA-based anti-adsorption solution before use.
(§1) HCT-8, HT-29, and HT-116 cells were grown in DMEM medium supplied with 10% fetal bovine serum (FBS) and 1% penicillin-streptomycin. Caco-2 cells were grown in DMEM medium supplied with 10% FBS, 1% non-essential amino acid NEAA), and 1% penicillin-streptomycin. Cells were cultured at 37 °C and 5% CO2. As cells reached confluency, they were detached using 0.25% Trypsin-EDTA.
Caco-2 cells were seeded on Transwell polycarbonate membrane filters (0.4 μm pore size, Corning, Germany) at a density of 2.6 × 10^5 cells/cm^2 and permeability tests performed as described by Hubatsch et al.. Cells were submerged with Hank’s balanced salt solution (HBSS), and transepithelial electrical resistance (TEER) was measured before and after the experiment. Peptide solution (1 μM) was added to the apical chamber, and 300 μL aliquots were taken after 30, 60, 90, and 120 min of incubation. Samples were analyzed using LC1-MS1. Linear curve fitting was used to calculate the apparent permeability coefficient (Papp).
EntF* was detected and quantified on a Waters Acquity® UPLC H-class system, connected to a Waters Xevo™ TQ-S triple quadrupole mass spectrometer with electrospray ionization (operated in positive ionization mode). Autosampler tray and column oven were kept at 10 ± 5 °C and 60 ± 5 °C, respectively. Chromatographic separation was achieved on a Waters Acquity® UPLC BEH Peptide C18 column (300 Å, 1.7 μm, 2.1 mm × 100 mm). The mobile phases consisted of 93/2/5 water/acetonitrile/DMSO (V/V/V) containing 0.1% formic acid (mobile phase A) and 2/93/5 water/acetonitrile/DMSO (V/V/V) containing 0.1% formic acid (mobile phase B), and the flow rate was set to 0.5 mL/min. A 10-μL aliquot from each sample was injected. The gradient program started with 80% of mobile phase A for 1 min, followed by a linear gradient to 40% of mobile phase A for 3.5 min. Gradient was then changed to 14.2% mobile phase A at 5 min, followed by a 1 min equilibration, before starting conditions were applied. EntF* retention time was between 4.25 and 4.45 min.

[2] = tested on: EntF*-mediated E-cadherin downregulation in HCT-8 cells; experiment: Antagonist activity analysis by Western blot; assay type: cell-based
Protocol: as §1
For Western blot analyses, HCT-8 (n = 15), HCT-116 (n = 12), Caco-2 (n = 6), and HT-29 (n = 12) cells were seeded in 6-well plates at a density of 1 × 10^6 cells/well. Twenty-four hours after seeding, all cell lines were treated with 1 μM EntF* or a placebo solution. HCT-8 cells were also tested for responsiveness to 1 μM EntF* synthetic alanine-derived analogs. For antagonist activity analysis, HCT-8 cells were treated with 1 μM Nef-M1 or 1 μM EntF*A1 alone or in combination with 500 nM EntF*. After 24 h, cells were detached from the surface and lysed in RIPA buffer (Thermo Scientific). Protein concentration was determined using the modified Lowry protein assay kit (Thermo Scientific), according to the manufacturer’s instructions. […]
The Kolmogorov-Smirnov test was used to assess if data obtained were normally distributed. […] Cohen’s d values were calculated as a measure of the effect size when similar standard deviations for both groups were found, and sample sizes were the same.

[3] = HBSS, initial concentration EntF 31.82 µM, time 0
[4] = HBSS, initial concentration EntF 31.82 µM, time 1
[5] = HBSS, initial concentration EntF 31.82 µM, time 5
[6] = HBSS, initial concentration EntF 31.82 µM, time 10
[7] = HBSS, initial concentration EntF 31.82 µM, time 30
[8] = HBSS, initial concentration EntF 31.82 µM, time 60
[9] = HBSS, initial concentration EntF 31.82 µM, time 120
[10] = HBSS, initial concentration EntF 31.82 µM, time 180

CC(C)C[C@@H]1NC(=O)[C@H](CO)NC(=O)[C@H](Cc2ccccc2)NC(=O)[C@H](C(C)C)NC(=O)[C@@H](NC(=O)[C@H](CCC(=O)O)NC(=O)[C@@H](NC(=O)[C@H](CC(C)C)NC(=O)[C@H](CC(N)=O)NC(=O)[C@@H](N)CO)C(C)C)CSSC[C@@H](C(=O)N[C@@H](CC(N)=O)C(=O)O)NC(=O)[C@H](CCCCN)NC(=O)[C@H](CCCCN)NC(=O)[C@H](Cc2ccccc2)NC1=O (single isomer, unassigned) [EntF*]
Formation rate, HBSS ([1]; value X1): 0.0321 %*min-1
Formation rate, HBSS ([1]; value X2): 0.0130 %*min-1
Formation rate, HBSS ([1]; value X3): 0.0600 %*min-1
Formation rate, HBSS ([1]; value X4): 0.0499 %*min-1
Formation rate, HBSS ([1]; value X5): 0.0573 %*min-1
Formation rate, HBSS ([1]; value X6): 0.0440 %*min-1
Formation rate, HBSS ([1]; value X7): 0.0469 %*min-1
Rico, Average ([1]; HBSS, initial concentration EntF 31.82 µM, average over the time points 1-180): 0.0433 %*min-1
EntF* Conc formed from EntF [1, 3]: 0.00 µM
EntF* without metabolisation, Conc [1, 3]: 0.00 µM
EntF* without metabolisation, Conc [1, 4]: 0.01 µM
EntF*/EntF [1, 4]: 0.0321%
EntF* Conc formed from EntF [1, 5]: 0.02 µM
EntF* without metabolisation, Conc [1, 5]: 0.02 µM
EntF*/EntF [1, 5]: 0.0652%
EntF* Conc formed from EntF [1, 6]: 0.19 µM
EntF* without metabolisation, Conc [1, 6]: 0.19 µM
EntF*/EntF [1, 6]: 0.60%
EntF* Conc formed from EntF [1, 7]: 0.48 µM
EntF* without metabolisation, Conc [1, 7]: 0.48 µM
EntF*/EntF [1, 7]: 1.50%
EntF* Conc formed from EntF [1, 8]: 1.09 µM
EntF* without metabolisation, Conc [1, 8]: 1.09 µM
EntF*/EntF [1, 8]: 3.44%
EntF* Conc formed from EntF [1, 9]: 1.68 µM
EntF* without metabolisation, Conc [1, 9]: 1.68 µM
EntF*/EntF [1, 9]: 5.28%
EntF* Conc formed from EntF [1, 10]: 2.69 µM
EntF* without metabolisation, Conc [1, 10]: 2.69 µM
EntF*/EntF [1, 10]: 8.45%
stability of EntF* in HBSS ([1]; HBSS, remark in sheet HBSS): EntF* is stable in HBSS
Kapp (Caco-2 monolayer; HBSS, replicate AB1): 2.13e-07 cm/min
Kapp (Caco-2 monolayer; HBSS, replicate AB2): 1.88e-07 cm/min
Kapp (Caco-2 monolayer; HBSS, replicate AB3): 2.21e-07 cm/min
Kapp (Caco-2 monolayer; HBSS, replicate AB4): 2.07e-07 cm/min
Kapp (Caco-2 monolayer; HBSS, replicate AB5): 2.81e-07 cm/min
Kapp (Caco-2 monolayer; HBSS, replicate AB6): 2.12e-07 cm/min
Cumulative conc (Caco-2 monolayer; HBSS, time 30 min): 43.732 pM and 39.850 pM and 48.195 pM and 54.684 pM and 29.485 pM and 29.005 pM
Cumulative amount (Caco-2 monolayer; HBSS, time 60 min): 30.299 amol and 45.664 amol and 39.602 amol and 52.014 amol and 67.922 amol and 37.955 amol
Cumulative conc (Caco-2 monolayer; HBSS, time 60 min): 25.249 pM and 38.053 pM and 33.002 pM and 43.345 pM and 56.602 pM and 31.630 pM
Cumulative amount (Caco-2 monolayer; HBSS, time 90 min): 46.426 amol and 46.765 amol and 42.758 amol and 52.183 amol and 67.818 amol and 43.254 amol
Cumulative conc (Caco-2 monolayer; HBSS, time 90 min): 38.688 pM and 38.971 pM and 35.631 pM and 43.485 pM and 56.515 pM and 36.045 pM
Cumulative amount (Caco-2 monolayer; HBSS, time 120 min): 37.088 amol and 40.742 amol and 47.116 amol and 44.500 amol and 55.592 amol and 38.733 amol
Cumulative conc (Caco-2 monolayer; HBSS, time 120 min): 30.906 pM and 33.952 pM and 39.263 pM and 37.084 pM and 46.326 pM and 32.277 pM
Mean cumulative amount (Caco-2 monolayer; time 30 min): 48.990 amol
Mean cumulative concentration (Caco-2 monolayer; time 30 min): 40.825 pM
Mean cumulative amount (Caco-2 monolayer; time 60 min): 45.576 amol
Mean cumulative concentration (Caco-2 monolayer; time 60 min): 37.980 pM
Mean cumulative amount (Caco-2 monolayer; time 90 min): 49.867 amol
Mean cumulative concentration (Caco-2 monolayer; time 90 min): 41.556 pM
Mean cumulative amount (Caco-2 monolayer; time 120 min): 43.962 amol
Mean cumulative concentration (Caco-2 monolayer; time 120 min): 36.635 pM
% Dose applied (Caco-2 monolayer; time 30 min): 13.120% and 11.955% and 14.459% and 16.405% and 8.846%
% Dose applied (Caco-2 monolayer; time 60 min): 7.575% and 11.416% and 9.901% and 13.004% and 16.980% and 9.489%
% Dose applied (Caco-2 monolayer; time 90 min): 11.606% and 11.691% and 10.689% and 13.046% and 16.954% and 10.813%
% Dose applied (Caco-2 monolayer; time 120 min): 9.272% and 10.185% and 11.779% and 11.125% and 13.898% and 9.683%
Conc in receiver compartment (Caco-2 monolayer; HBSS, time 0 min): 0.0217667 nM and 0.0386367 nM and 0.0252731 nM and 0.06096 nM and 0.0351635 nM and 0.0240173 nM
Conc in receiver compartment (Caco-2 monolayer; HBSS, time 30 min): 0.0382904 nM and 0.0301911 nM and 0.0418772 nM and 0.0394437 nM and 0.0206944 nM and 0.0230007 nM
Conc in receiver compartment (Caco-2 monolayer; HBSS, time 60 min): 0.0134944 nM and 0.0230389 nM and 0.015795 nM and 0.0265575 nM and 0.0315007 nM and 0.0176651 nM
Conc in receiver compartment (Caco-2 monolayer; HBSS, time 90 min): 0.02356 nM and 0.0181966 nM and 0.0144756 nM and 0.0200585 nM and 0.0235388 nM and 0.017664 nM
Conc in receiver compartment (Caco-2 monolayer; HBSS, time 120 min): 0.009888 nM and 0.0086284 nM and 0.0144888 nM and 0.008642 nM and 0.007466 nM and 0.009481 nM
apparent permeability coefficient (Papp) (Caco-2 monolayer; Caco-2 monolayer on Transwell polycarbonate filters (0.4 μm), apical to basolateral, HBSS, 1 μM peptide in apical chamber, aliquots 30, 60, 90, 120 min, LC1-MS1, linear curve fitting, mean ± SEM, n = 6): 3.67 ± 0.22 × 10^−9 cm s^−1
E-cadherin level, EntF* only ([2]; HCT-8 cells, EntF* only, 24 h, relative to control, n = 15): 62%
Relative E-cadherin level (% of control), mean ([2]; mean of the replicates): 62.0
